KD and binding data for 1 compound are collected here from PMC11267568 (2024).

For orientation: KD means the constant that tells how readily two partners part at equilibrium. The low end stands for a tighter complex, the high end for a looser complex.

Common to all, as to test: in-line probing
Experiment [1] concerns r10-4 (RNA, aptamer) GGACCUCGAGGCUACCGCGGCUGGCUCUCGGACGACUAUGCCUCGCGUGGAUAUGGCACGCGUAGAAGGGCACCGUAAAUGCCCUACUUGCGGUAGUCAUCCCGAUGGA
To be noted: 10 mM MgCl2, 50 mM KCl (1x of 2x buffer); 25 mM Tris-HCl pH 8.3 (1x), room temperature, ~48 h.

In experiment [2] the test system is r10-1N (RNA, aptamer) GGCCUCGCGUGGAUAUGGCACGCGUAGAAGGGCACCGUAAAUGUCCUA
To be noted: 10 mM MgCl2, 50 mM KCl (1x of 2x buffer); 25 mM Tris-HCl pH 8.3 (1x), room temperature, ~48 h.

Experiment [3] has as its system 11-19A (RNA, aptamer) GGCUACCGCCGCUGGGCUCUCGGGACGACACUGAGGGAACGCGUGGAUAUGGCACGCAACAGCGGGCACCGUAAAUGUCCUGGCGGUAGUC
To be noted: 10 mM MgCl2, 50 mM KCl (1x of 2x buffer); 25 mM Tris-HCl pH 8.3 (1x), room temperature, ~48 h.

The subject of experiment [4] is 11-19 (RNA, aptamer) GGCUACCGCCGCUGGGCUCUCGGGACGACACUGAGGGAACGCGUGGAUAUGGCACGCAACAGCGGGCACCGUAAAUGUCCUGGCGGUAGUCGACCCGAUGGACACUGUCGGCGUAG
To be noted: 10 mM MgCl2, 50 mM KCl (1x of 2x buffer); 0.1 to 10 μM branaplam.

Experiment [5] concerns 11-1B (RNA, aptamer) GGCUACCGCCGCUGGCUCUCGGGCGACUGUGCCUCGCGUGGAUAUGGCACGCGUAGAAGGGCACCGUAAAUGUCCUACUUGCGGUAGUC
To be noted: 10 mM MgCl2, 50 mM KCl (1x of 2x buffer); 25 mM Tris-HCl pH 8.3 (1x), room temperature, ~48 h.

For experiment [6], the system named is t14-4 (RNA, aptamer) GGCUGAUCUCCCAUCGGUAUGCCCUUCUGUGUGAAGGCGGUACUAAUGCCGGAGUGUAGAAACUGGAUAAUGCCAGUUAGUGGUAUGGAGAUACUACGACGCACGC
Conditions: 10 mM MgCl2, 50 mM KCl (1x of 2x buffer); 25 mM Tris-HCl pH 8.3 (1x), room temperature, ~48 h.

Experiment [7] concerns r10-1 (RNA, aptamer) GGACCUCGAGGCUACCGCGGCUGGCUCUCGGACGACUAUGCCUCGCGUGGAUAUGGCACGCGUAGAAGGGCACCGUAAAUGUCCUACUUGCGGUAGUCAUCCCGAUGGA
To be noted: 10 mM MgCl2, 50 mM KCl (1x of 2x buffer); 25 mM Tris-HCl pH 8.3 (1x), room temperature, ~48 h.

The test system of experiment [8] is r10-1C-M1 (RNA, aptamer) GGCUACCGCGGCUGGCUUCGGCCUCGCGUGGAUAUAACACGCGUAGAAGGGCACCGUAAAUGUCCUACUUGCGGUAGUC
To be noted: 10 mM MgCl2, 50 mM KCl (1x of 2x buffer); up to 10 μM branaplam; 25 mM Tris-HCl pH 8.3, room temperature.

The test system of experiment [9] is r10-1C (RNA, aptamer) GGCUACCGCGGCUGGCUUCGGCCUCGCGUGGAUAUGGCACGCGUAGAAGGGCACCGUAAAUGUCCUACUUGCGGUAGUC
Conditions: 10 mM MgCl2, 50 mM KCl (1x of 2x buffer); 25 mM Tris-HCl pH 8.3 (1x), room temperature, ~48 h.

Experiment [10] concerns r10-3 (RNA, aptamer) GGACCUCGAGGCUACCGCGGCUGGCUCUCGGACGACUGUGCCUCGCGUGGAUAUGGCACGCGUAGAAGGACACCGUAAAUGUCCUACUUGCGGUAGUCAUCCCGAUGGA
Conditions: 10 mM MgCl2, 50 mM KCl (1x of 2x buffer); 25 mM Tris-HCl pH 8.3 (1x), room temperature, ~48 h.

Experiment [11] deals with r10-1G (RNA, aptamer) GGCUGGCUUCGGCCUCGCGUGGAUAUGGCACGCGUAGAAGGGCACCGUAAAUGUCCUACUU
Conditions: 10 mM MgCl2, 50 mM KCl (1x of 2x buffer); 25 mM Tris-HCl pH 8.3 (1x), room temperature, ~48 h.

In experiment [12] the test system is r10-2 (RNA, aptamer) GGACCUCGAGGCUACCGCAGCUGGCUCUCGGACGACUAUGCCUCGCGUGGAUAUGGCACGCGUAGAAGGGCACCGUAAAUGUCCUACUUGCGGUAGUCAUCCCGAUGGA
Conditions: 10 mM MgCl2, 50 mM KCl (1x of 2x buffer); 25 mM Tris-HCl pH 8.3 (1x), room temperature, ~48 h.

In experiment [13] the test system is 11-1 (RNA, aptamer) GGCUACCGCCGCUGGCUCUCGGGCGACUGUGCCUCGCGUGGAUAUGGCACGCGUAGAAGGGCACCGUAAAUGUCCUACUUGCGGUAGUCAUCCCGAUGGACACUGUCGGCGUAG
To be noted: 10 mM MgCl2, 50 mM KCl (1x of 2x buffer); 25 mM Tris-HCl pH 8.3 (1x), room temperature, ~48 h.

For experiment [14], the system named is r10-1H (RNA, aptamer) GGCCUCGCGUGGAUAUGGCACGCGUAGAAGGGCACCGUAAAUGUCCUACUU
Conditions: 10 mM MgCl2, 50 mM KCl (1x of 2x buffer); 25 mM Tris-HCl pH 8.3 (1x), room temperature, ~48 h.

For the compound `CC1(C)CC(Oc2ccc(-c3ccc(-c4cn[nH]c4)cc3O)nn2)CC(C)(C)N1`, the KD in experiment [1] came to 634 ± 74 nM; in experiment [2], 150 ± 26 nM; in experiment [3] it was 846 ± 127 nM; in experiment [5] it was 1170 ± 170 nM; in experiment [6] it was 2270 ± 150 nM; in experiment [7], 420 ± 41 nM. Also, the KD in experiment [9] was determined as 400 ± 43 nM; in experiment [10], 964 ± 382 nM; in [11], 352 ± 21 nM; in [12], 623 ± 55 nM; in experiment [13] it was 2440 ± 1030 nM; in [14] it was 311 ± 19 nM. For the same compound, the results for the binding entry in experiment [4] and in experiment [8] were “yes” and “no”, respectively.
